Results: ChEMBL document CHEMBL1649244, “Horizontal transfer of tetracycline resistance among Chlamydia spp. in vitro” (2009)
In brackets after ≈: the same amount, converted by molar mass.

Experiments:
Format in all cases: functional
Chlamydia trachomatis [1] = experiment: Antimicrobial activity against Chlamydia trachomatis L2/oflR harboring ompA gene
Chlamydia suis [2] = experiment: Antimicrobial activity against Chlamydia suis S45/rifR harboring rpoB gene
Chlamydia trachomatis [3] = experiment: Antimicrobial activity against Chlamydia trachomatis J/6276/rifR harboring ompA and rpoB genes
Chlamydia muridarum [4] = experiment: Antimicrobial activity against Chlamydia muridarum MoPn/oflR harboring ompA gene
Chlamydia trachomatis [5] = experiment: Antimicrobial activity against Chlamydia trachomatis L2/oflR-rifR1 harboring ompA and rpoB genes
Chlamydia suis [6] = experiment: Antimicrobial activity against Chlamydia suis R19/tetR harboring tet(C) allele
Chlamydia muridarum [7] = experiment: Antimicrobial activity against Chlamydia muridarum MoPn/rifRoflR harboring ompA and rpoB genes
Chlamydia trachomatis [8] = experiment: Antimicrobial activity against Chlamydia trachomatis L2/tetR13 harboring tet(C) allele
Chlamydia trachomatis [9] = experiment: Antimicrobial activity against Chlamydia trachomatis J/6276/tetR harboring tet(C) allele
Chlamydia trachomatis [10] = experiment: Antimicrobial activity against Chlamydia trachomatis F/70/rifR harboring rpoB gene
Chlamydophila caviae = experiment: Antimicrobial activity against Chlamydophila caviae GPIC/rifR harboring rpoB gene; conditions: Chlamydia caviae
Chlamydia trachomatis [11] = experiment: Antimicrobial activity against Chlamydia trachomatis L2/oflR-rifR2 harboring […] and rpoB genes
Chlamydia trachomatis [12] = experiment: Antimicrobial activity against Chlamydia trachomatis J/6276/oflR-rifR1 harboring ompA and rpoB genes
Chlamydia muridarum [13] = experiment: Antimicrobial activity against Chlamydia muridarum MoPn/oflR-rifR harboring ompA and rpoB genes
Chlamydia trachomatis [14] = experiment: Antimicrobial activity against Chlamydia trachomatis J/6276/oflR-rifR2 harboring ompA and rpoB genes
Chlamydia trachomatis [15] = experiment: Antimicrobial activity against Chlamydia trachomatis L2/tetR1 harboring tet(C) allele
Chlamydia muridarum [16] = experiment: Antimicrobial activity against Chlamydia muridarum MoPn/tetR14 harboring tet(C) allele
Chlamydia muridarum [17] = experiment: Antimicrobial activity against Chlamydia muridarum MoPn/tetR1 harboring tet(C) allele
Chlamydia trachomatis [18] = experiment: Antimicrobial activity against Chlamydia trachomatis F/70/rifR-tetR harboring rpoB gene and tet(C) allele

Row | SMILES | MIC (Chlamydia trachomatis [1]) [µg/mL] | MIC (Chlamydia suis [2]) [µg/mL] | MIC (Chlamydia trachomatis [3]) [µg/mL] | MIC (Chlamydia muridarum [4]) [µg/mL] | MIC (Chlamydia trachomatis [5]) [µg/mL] | MIC (Chlamydia suis [6]) [µg/mL] | MIC (Chlamydia muridarum [7]) [µg/mL] | MIC (Chlamydia trachomatis [8]) [µg/mL] | MIC (Chlamydia trachomatis [9]) [µg/mL] | MIC (Chlamydia trachomatis [10]) [µg/mL] | MIC (Chlamydophila caviae) [µg/mL] | MIC (Chlamydia trachomatis [11]) [µg/mL] | MIC (Chlamydia trachomatis [12]) [µg/mL] | MIC (Chlamydia muridarum [13]) [µg/mL] | MIC (Chlamydia trachomatis [14]) [µg/mL] | MIC (Chlamydia trachomatis [15]) [µg/mL] | MIC (Chlamydia muridarum [16]) [µg/mL] | MIC (Chlamydia muridarum [17]) [µg/mL] | MIC (Chlamydia trachomatis [18]) [µg/mL]
1 | CC1COc2c(N3CCN(C)CC3)c(F)cc3c(=O)c(C(=O)O)cn1c23 (configuration not stated) [OFLOXACIN] | 16 (≈ 44.3 µM) | 0.5 (≈ 1.38 µM) | 0.5 (≈ 1.38 µM) | 32 (≈ 88.6 µM) | 16 (≈ 44.3 µM) | 0.5 (≈ 1.38 µM) | 32 (≈ 88.6 µM) | 16 (≈ 44.3 µM) | 0.5 (≈ 1.38 µM) | 0.5 (≈ 1.38 µM) | 0.5 (≈ 1.38 µM) | 16 (≈ 44.3 µM) | 16 (≈ 44.3 µM) | 32 (≈ 88.6 µM) | 32 (≈ 88.6 µM) | 16 (≈ 44.3 µM) | 32 (≈ 88.6 µM) | 32 (≈ 88.6 µM) | 0.5 (≈ 1.38 µM)
2 | CO[C@H]1/C=C/O[C@@]2(C)Oc3c(C)c(O)c4c(O)c(c(/C=N/N5CCN(C)CC5)c(O)c4c3C2=O)NC(=O)/C(C)=C\C=C\[C@H](C)[C@H](O)[C@@H](C)[C@@H](O)[C@@H](C)[C@H](OC(C)=O)[C@@H]1C [RIFAMPIN] | 0.004 (≈ 0.00486 µM) | 0.25 (≈ 0.304 µM) | 0.004 (≈ 0.00486 µM) | 0.008 (≈ 0.00972 µM) | 128 (≈ 156 µM) | 0.004 (≈ 0.00486 µM) | 128 (≈ 156 µM) | 0.004 (≈ 0.00486 µM) | 8 (≈ 9.72 µM) | 32 (≈ 38.9 µM) | 16 (≈ 19.4 µM) | 0.25 (≈ 0.304 µM) | 8 (≈ 9.72 µM) | 0.25 (≈ 0.304 µM) | 8 (≈ 9.72 µM) | 128 (≈ 156 µM) | 128 (≈ 156 µM) | 0.008 (≈ 0.00972 µM) | 32 (≈ 38.9 µM)
3 | CN(C)[C@@H]1C(O)=C(C(N)=O)C(=O)[C@@]2(O)C(O)=C3C(=O)c4c(O)cccc4[C@@](C)(O)[C@H]3C[C@@H]12 [TETRACYCLINE] | 0.032 (≈ 0.072 µM) | 0.032 (≈ 0.072 µM) | 0.032 (≈ 0.072 µM) | 0.032 (≈ 0.072 µM) | 0.008 (≈ 0.018 µM) | 8 (≈ 18 µM) | 0.008 (≈ 0.018 µM) | 8 (≈ 18 µM) | 8 (≈ 18 µM) | 0.032 (≈ 0.072 µM) | 0.032 (≈ 0.072 µM) | 0.032 (≈ 0.072 µM) | 0.032 (≈ 0.072 µM) | 0.032 (≈ 0.072 µM) | 0.032 (≈ 0.072 µM) | 8 (≈ 18 µM) | 8 (≈ 18 µM) | 8 (≈ 18 µM) | 8 (≈ 18 µM)
